Laboratory results: PMC11542720, “Modelling of chromatographic and electrophoretic behaviour of imidazoline and alpha adrenergic receptors ligands under different acid-base conditions” (ADMET & DMPK, 2024)
Structures can show the parent of a compound that is named as a salt. Where two headings read alike, the source gives them in different places.

Columns and labels:
[1] = cited from earlier work
[2] = RP-HPLC retention on XTerra RP18, methanol/buffer; extrapolated retention factor log kw and slope S; type: physicochemical; conditions: for log kw: intercept, extrapolated to 100 % buffer, methanol/buffer, 25 °C; for S (slope): slope of log k vs methanol volume fraction
Description: All measurements were performed at 25°C with a constant flow rate of 0.8 mL min^-1 and UV detection in the range of 200-280 nm. The injection volume was 20 μL. […] The retention factor k was calculated for each mobile phase composition according to Equation (1):
where tr is the retention time of the tested compound and t0 is the dead volume measured with KNO3 as a non-retentive marker. The values corresponding to 100 % of the buffered eluent (log kw) were determined by extrapolation according to Equation (2):
where log kw is the intercept, S is the slope of the regression line, and φ is the volume fraction of the organic modifier in the mobile phase.
The retention behaviour in HPLC system was monitored by calculating extrapolated retention factors log kw corresponding to pure buffer as mobile phase.

[3] = Capillary electrophoresis, effective electrophoretic mobility (acetone as EOF marker); type: physicochemical; conditions: for µeff4.4 / µeff7.4 / µeff9.1: I = 25 mmol/L, 11 kV, 25 °C, three replicates; for µeff7.4: pH 7.4; for μeff9.1 (effective electrophoretic mobility) / µeff9.1: pH 9.1
Description: All experiments were performed using the SpectraPhoresis 500-capillary electrophoresis system (Spectra Physics Analytical, USA) with UV detector. Data were recorded and analyzed using ChromQuest software version 4.0 (Thermo Finnigan, USA).
The separations were performed with an uncoated fused capillary (total length 31.5 cm, 50 μm id, effective length 24 cm, Polymicro Technologies, USA) applying a voltage of 11 kV and at 25 °C. The samples were injected hydrodynamically and detection was performed in the 200-280 nm range. The new capillary was rinsed stepwise with 0.1 M NaOH (15 min), water (10 min) and a running buffer (10 min). Finally, a 10 min high voltage was applied through the background electrolyte-filled capillary to equalize the inner surface, stabilize the electroosmotic flow and ensure good reproducibility of injections from run to run. […] Between runs, the capillary was rinsed with the background electrolyte for 1 minute.
where Lt is the total length of the capillary (cm), Leff is the effective length of the capillary (cm), U is the applied voltage (V), tm is the migration time of the analyte (s) and teof is the migration time of the electroneutral EOF marker acetone (s). The calculated μeff values (μeff4.4, μeff7.4 and μeff9.1) were used as dependent variables in QSMR analysis.

[4] = HPLC, ref 7 (Supplement reference list)
[5] = pH spectrophotometric, ref 13 (Supplement reference list)
[6] = pH-spectrophotometric, ref 14 (Supplement reference list)

SMILES	log kw ([2]; pH 4.4)	S (slope) ([2]; pH 4.4)	log kw ([2]; pH 7.4)	S (slope) ([2]; pH 7.4)	log kw ([2]; pH 9.1)	S (slope) ([2]; pH 9.1)	µeff4.4 ([3]; pH 4.4)	µeff7.4 [3]	μeff9.1 (effective electrophoretic mobility) [3]	µeff9.1 [3]	pKa experimental [1, 4]	other results
CN1CCN(C2=Nc3cc(Cl)ccc3Nc3ccccc32)CC1 [Clozapine, clozapine]	2.94 ± 0.03	-4.69 ± 0.06	3.85 ± 0.05	-4.88 ± 0.08	3.95 ± 0.08	-5.04 ± 0.15	22.697 ± 0.017 10^-5 cm^2 V^-1 s^-1	9.204 ± 0.061 10^-5 cm^2 V^-1 s^-1	zero	0.000 ± 0.000 10^-5 cm^2 V^-1 s^-1		pKa experimental ([1]; HPLC, ref 5 (Supplement reference list)): 7.719 ± 0.015
COc1cc2nc(N3CCN(C(=O)C4COc5ccccc5O4)CC3)nc(N)c2cc1OC (centres unmarked) [Doxazosin, doxazosin mesilat]	3.42 ± 0.07	-5.56 ± 0.14	3.67 ± 0.11	-5.05 ± 0.19	3.60 ± 0.11	-4.95 ± 0.20	15.795 ± 0.013 10^-5 cm^2 V^-1 s^-1	3.137 ± 0.075 10^-5 cm^2 V^-1 s^-1	zero	0.000 ± 0.000 10^-5 cm^2 V^-1 s^-1		pKa experimental ([1]; voltammetric, ref 6 (Supplement reference list)): 6.89 ± 0.57
CCC1(C2=NCCN2)Cc2ccccc2O1 (centres unmarked) [Efaroxan, efaroxan hydrochloride]	1.31 ± 0.02	-3.20 ± 0.04	1.33± 0.03	-3.10 ± 0.14	1.85 ± 0.01	-3.38 ± 0.03	24.099 ± 0.035 10^-5 cm^2 V^-1 s^-1	22.704 ± 0.075 10^-5 cm^2 V^-1 s^-1		16.361 ± 0.178 10^-5 cm^2 V^-1 s^-1	10.02	
Cc1nccc2c1[nH]c1ccccc12 [Harman, harmane]	1.72 ± 0.06	-3.74 ± 0.18	2.76 ± 0.05	-3.70 ± 0.09	2.78 ± 0.06	-3.75 ± 0.11	28.192 ± 0.016 10^-5 cm^2 V^-1 s^-1	11.752 ± 0.034 10^-5 cm^2 V^-1 s^-1		0.000 ± 0.000 10^-5 cm^2 V^-1 s^-1	7.21	μeff4.4 (effective electrophoretic mobility) ([3]; pH 4.4): 28.19 10^-5 cm^2 / V s
COc1ccc2c(c1)[nH]c1c(C)nccc12 [Harmine, harmine hydrochloride]	2.15 ± 0.04	-4.28 ± 0.11	2.88 ± 0.05	-3.85 ± 0.09	2.95 ± 0.07	-3.97 ± 0.12	26.410 ± 0.068 10^-5 cm^2 V^-1 s^-1	13.636 ± 0.051 10^-5 cm^2 V^-1 s^-1		1.305 ± 0.124 10^-5 cm^2 V^-1 s^-1		pKa experimental ([1]; spectrophotometric, ref 9 (Supplement reference list)): 7.45 (spectrophotometric) [9]
c1ccc2c(c1)OCC(C1=NCCN1)O2 (centres unmarked) [Idazoxan, idazoxan hydrochloride]	0.82 ± 0.01	-2.66 ± 0.03	0.85 ± 0.02	-1.58 ± 0.04	1.53 ± 0.01	-2.80 ± 0.01	26.969 ± 0.032 10^-5 cm^2 V^-1 s^-1	23.293 ± 0.020 10^-5 cm^2 V^-1 s^-1		6.627 ± 0.102 10^-5 cm^2 V^-1 s^-1	9.04	
CNCCCC12CCC(c3ccccc31)c1ccccc12 [Maprotiline, maprotiline hydrochloride]	2.90 ± 0.08	-4.31 ± 0.14	2.58 ± 0.12	-3.18 ± 0.20	3.09 ± 0.08	-4.20 ± 0.14	20.559 ± 0.034 10^-5 cm^2 V^-1 s^-1	18.696 ± 0.048 10^-5 cm^2 V^-1 s^-1		19.402 ± 0.148 10^-5 cm^2 V^-1 s^-1		pKa experimental ([1]; potentiometric, ref 11 (Supplement reference list)): 10.45 ± 0.02
CN1CCN2c3ccccc3Cc3ccccc3C2C1 (centres unmarked) [Mianserin, mianserin hydrochloride]	2.48 ± 0.03	-4.24 ± 0.07	3.91 ± 0.05	-4.82 ± 0.08	3.92 ± 0.06	-4.83 ± 0.11	22.471 ± 0.004 10^-5 cm^2 V^-1 s^-1	12.234 ± 0.109 10^-5 cm^2 V^-1 s^-1		0.000 ± 0.000 10^-5 cm^2 V^-1 s^-1		pKa experimental ([1]; potentiometric, ref 12 (Supplement reference list)): 7.40
COc1nc(C)nc(Cl)c1N=C1NCCN1 [Moxonidine, moxonidine hydrochloride]	0.57 ± 0.03	-3.21± 0.17	0.63 ± 0.03	-2.36 ± 0.10	0.75 ± 0.04	-2.31 ± 0.10	22.669 ± 0.104 10^-5 cm^2 V^-1 s^-1	10.907 ± 0.078 10^-5 cm^2 V^-1 s^-1	zero	0.000 ± 0.000 10^-5 cm^2 V^-1 s^-1	7.84	
c1ccc2c(CC3=NCCN3)cccc2c1 [Naphazoline, naphazoline hydrochloride]	1.52 ± 0.01	-3.48 ± 0.04	1.52 ± 0.01	-3.64 ± 0.05	1.76 ± 0.01	-3.50 ± 0.03	25.941 ± 0.038 10^-5 cm^2 V^-1 s^-1	24.180 ± 0.135 10^-5 cm^2 V^-1 s^-1		24.643 ± 0.049 10^-5 cm^2 V^-1 s^-1		pKa experimental [1, 5]: 10.81
Cc1cc(C(C)(C)C)c(O)c(C)c1CC1=NCCN1 [Oxymetazoline, oxymetazoline hydrochloride]	2.33 ± 0.02	-3.89 ± 0.04	2.33 ± 0.04	-3.61 ± 0.10	2.60 ± 0.07	-4.14 ± 0.16	20.276 ± 0.040 10^-5 cm^2 V^-1 s^-1	19.061 ± 0.049 10^-5 cm^2 V^-1 s^-1		19.556 ± 0.076 10^-5 cm^2 V^-1 s^-1		pKa experimental [1, 5]: 10.62
CNC[C@H](O)c1cccc(O)c1 [Phenilephrine, Phenilephrine hydrochloride]	0.09 ± 0.02	-2.53 ± 0.14	0.04 ± 0.01	-2.62 ± 0.06	0.39 ± 0.02	-2.00 ± 0.06	25.780 ± 0.006 10^-5 cm^2 V^-1 s^-1	21.650 ±0.195 10^-5 cm^2 V^-1 s^-1		8.661 ± 0.036 10^-5 cm^2 V^-1 s^-1		pKa experimental (first of two printed values) [1, 6]: 9.17; pKa experimental (second of two printed values) [1, 6]: 9.17 and 10.45 (pH-spectrophotometric) [14 ]; log kw ([2]; pH 4.4, listed as phenilephrine): 0.09
c1ccc2c(c1)CCCC2C1=NCCN1 (centres unmarked) [Tetrahydrozoline, tetrahydrozoline hydrochloride]	1.06 ± 0.02	-2.94 ± 0.05	1.08 ± 0.01	-3.24 ± 0.06	1.32 ± 0.03	-2.99 ± 0.07	25.680 ± 0.049 10^-5 cm^2 V^-1 s^-1	24.299 ± 0.057 10^-5 cm^2 V^-1 s^-1	25.05 10^-5 cm^2 / V s	25.047 ± 0.066 10^-5 cm^2 V^-1 s^-1		pKa experimental ([1]; pH titration, ref 4 (Supplement reference list)): 10.51 ± 0.05
